The values that follow come from patent publication US20220226339A1, “INHIBITATION OF ACID LIPASE FOR CANCER THERAPY” (Heinrich-Heine-Universität Düsseldorf, priority 2019, published 2022).

Assay [1] deals with MDA-MB-231 cancer cells. The assay is described as follows: Relative expression of tumor stem cell markers and vimentin by quantitative PCR. Type of assay: cell-based, human. Particulars: MDA-MB-231, 6 days, 50 μM Lalistat vs 0.05% DMSO. How it is done: 24 hours after seeding, MDA-MB-231 cancer cells were incubated for 6 days in 15% FCS-containing RPMI medium containing 50 μM Lalistat or formulation control (0.05% DMSO). Subsequently, the relative expression of the (A-C) tumor stem cell markers ALDH1, CD44 and the ratio CD44/CD24 and of the (D) mesenchymal marker vimentin was analyzed by means of quantitative PCR. The values were normalized to the housekeepers GAPDH or HRPT1. The target was amplified in a singleplex assay using “SYBR Green”.
The results of two independent experiments with three biological replicates in each case are depicted. Significance difference compared to formulation control: ALDH: 0.0026 (GAPDH), 0.0004 (HRPT1); CD44: […] (GAPDH/HRPT1); CD44/CD24: <0.01

The subject of assay [2] is MDA-MB-231 cancer cells. Description: Cell proliferation of MDA-MB-231 cancer cells (CellTiterGlo). The assay is classed as cell-based, human. The following applies: MDA-MB-231, 3 days, 15% FCS RPMI, Lalistat concentrations descending from 50 μM, non-cell-toxic range. How it is done: Cell proliferation was ascertained using Cell-TiterGlo®.
MDA-MB-231 cancer cells were incubated with Lalistat 2 (selective LAL inhibitor) or the formulation control (mock).
MDA-MB-231 cancer cells were incubated with Lalistat 2 (selective LAL inhibitor) or the formulation control (mock). For the formulation control, […] alone was used with the same concentration of DMSO as for Lalistat 2. 24 hours after seeding, the cancer cells were incubated for 3 days in 15% FCS-containing RPMI medium having concentrations of Lalistat descending from 50 μM or the corresponding DMSO concentration as control. Subsequently, CellTiterGlo® (Promega) was used to quantify the number of vital cancer cells.

The subject of assay [3] is PD-L1 expression on cancer cells. The assay is described as follows: PD-L1 expression on cancer cells after Lalistat treatment. The assay is classed as cell-based.

Turning to `O=C(Oc1nsnc1N1CCCCC1)N1CCCCC1` [Lalistat 2, 4-(piperidin-1-yl)-1,2,5-thiadiazol-3-yl piperidine-1-carboxylate], the “expression of mesenchymal marker vimentin” value in the assay on MDA-MB-231 cancer cells [1] (qPCR) is reported as “reduction in the expression”. Further, in the assay on MDA-MB-231 cancer cells [1] (qPCR normalized to GAPDH or HRPT1), the “expression of (tumor) stem cell markers (ALDH1, CD44, ratio CD44/CD24)” value is given as “reduction in the expression”. In addition, the results for the “cell proliferation compared to formulation control” value in the assay on MDA-MB-231 cancer cells [2] and in the assay with MDA-MB-231 cancer cells [2] (listed as Lalistat) were “antiproliferative effect” and “distinct inhibition of cell proliferation”, respectively. Further, in assay [3], the “PD-L1 expression on cancer cells” value was “reduced PD-L1 expression”.
